Test results from ChEMBL document CHEMBL5096229, “A 1,2,3-Triazole Derivative of Quinazoline Exhibits Antitumor Activity by Tethering RNF168 to SQSTM1/P62” (J Med Chem, 2022).
Calls of active or inactive are those of the source. No cut-off for these calls is given here.

How the values were obtained:
[1] = Toxicity in BALB/c nude mouse assessed as animal death 50 mg/kg, ip after 7 days; assay type: organism-based; settings: in vivo, 168 h, time 7 day
[2] = AUCt in BALB/c mouse at 5 mg/kg; assay type: ADME, organism-based; set-up: dose 5 mg/kg; settings: in vivo
[3] = AUCt in BALB/c mouse at 10 mg/kg; assay type: ADME, organism-based; set-up: dose 10 mg/kg; settings: in vivo
[4] = Toxicity in BALB/c mouse assessed as animal death at less than 50 mg/kg, ip after 7 days; assay type: organism-based; settings: in vivo, 168 h, time 7 day
A549 = test: Cytotoxicity against human A549 cells assessed as reduction in cell viability incubated for 72 hrs by MTS assay; assay type: functional, cell-based; settings: A549, 72 h
HCT-116 [5] = test: Antitumor activity against human HCT-116 cells xenografted with BALB/c nude mouse assessed as increase in cleaved PARP1 positive tumor cells at 5 to 10 mg/kg, ip administered every 3 days upto 22 days by immuno histochemistry assay; assay type: functional, organism-based; settings: dose 5-10 mg/kg, time <= 22.0 day
[6] = Clearance in BALB/c mouse at 10 mg/kg; assay type: ADME, organism-based; settings: in vivo
[7] = Toxicity in BALB/c nude mouse assessed as diarrhea 12.5 mg/kg, ip after 7 days; assay type: organism-based; settings: in vivo, 168 h, time 7 day
HeLa = test: Induction of x-ray sensitivity in human HeLa cells; assay type: functional, cell-based
[8] = Metabolic stability in human liver microsomes assessed as half life at 0.5 uM by LC-MS analysis; assay type: ADME, Microsome
HCT-116 [9] = test: Induction of cell cycle arrest in human HCT-116 cells assessed as accumulation at G0/G1 phase at 5 uM after 24 hrs by propidium iodide-staining based flow cytometry (reference value: 58.01 +/- 1.77%); assay type: functional
[10] = molecular target: T1, Glucocorticoid receptor (Homo sapiens) (UniProt P04150); test: Inhibition of GR (unknown origin) at 10 uM
T1 sequence (whole entry): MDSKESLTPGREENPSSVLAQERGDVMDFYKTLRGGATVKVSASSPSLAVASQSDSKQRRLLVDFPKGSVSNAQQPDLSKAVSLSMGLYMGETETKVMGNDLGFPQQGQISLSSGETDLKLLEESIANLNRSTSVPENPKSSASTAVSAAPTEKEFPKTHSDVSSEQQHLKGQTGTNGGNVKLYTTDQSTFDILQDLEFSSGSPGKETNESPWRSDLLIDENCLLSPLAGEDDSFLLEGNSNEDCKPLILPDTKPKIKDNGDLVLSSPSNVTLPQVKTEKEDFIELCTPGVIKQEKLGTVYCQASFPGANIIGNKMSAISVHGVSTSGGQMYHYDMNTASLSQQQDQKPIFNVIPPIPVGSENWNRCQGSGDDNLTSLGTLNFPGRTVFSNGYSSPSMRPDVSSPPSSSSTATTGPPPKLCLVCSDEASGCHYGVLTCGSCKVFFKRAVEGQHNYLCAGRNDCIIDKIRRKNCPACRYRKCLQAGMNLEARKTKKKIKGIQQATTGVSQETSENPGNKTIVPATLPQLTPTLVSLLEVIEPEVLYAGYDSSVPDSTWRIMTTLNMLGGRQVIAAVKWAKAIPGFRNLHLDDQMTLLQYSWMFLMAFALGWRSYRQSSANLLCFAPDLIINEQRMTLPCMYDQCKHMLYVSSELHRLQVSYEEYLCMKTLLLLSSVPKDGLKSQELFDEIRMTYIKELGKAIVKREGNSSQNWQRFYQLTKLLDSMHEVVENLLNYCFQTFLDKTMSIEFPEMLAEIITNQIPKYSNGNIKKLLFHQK

HCT-116 [11] = test: Induction of cell cycle arrest in human HCT-116 cells assessed as accumulation at G2/M phase at 1 uM after 24 hrs by propidium iodide-staining based flow cytometry (reference value: 23.25 +/- 1.38%); assay type: functional
U2OS [12] = test: Cytotoxicity against human U2OS cells assessed as reduction in cell viability incubated for 72 hrs by MTS assay; assay type: functional, cell-based
MCF7 = test: Cytotoxicity against human MCF7 cells assessed as reduction in cell viability incubated for 72 hrs by MTS assay; assay type: functional, cell-based; settings: MCF7, 72 h
[13] = Half life in BALB/c mouse at 10 mg/kg; assay type: ADME, organism-based; settings: in vivo
HCT-116 [14] = test: Induction of x-ray sensitivity in human HCT-116 cells; assay type: functional, cell-based
[15] = Toxicity in BALB/c mouse assessed as animal death at 100 mg/kg, ip after 7 days; assay type: organism-based; settings: in vivo, 168 h, time 7 day
[16] = Half life in BALB/c mouse at 5 mg/kg; assay type: ADME, organism-based; settings: in vivo
[17] = Toxicity in BALB/c mouse assessed as maximum tolerable dose; settings: in vivo
MDA-MB-231 = test: Cytotoxicity against human MDA-MB-231 cells assessed as reduction in cell viability incubated for 72 hrs by MTS assay; assay type: functional, cell-based; settings: MDA-MB-231, 72 h
[18] = Half life in BALB/c mouse at 20 mg/kg; assay type: ADME, organism-based; settings: in vivo
HCT-116 [19] = test: Induction of cell cycle arrest in human HCT-116 cells assessed as accumulation at S phase at 1 uM after 24 hrs by propidium iodide-staining based flow cytometry (reference value: 17.17 +/- 0.18%); assay type: functional
MGC-803 = test: Cytotoxicity against human MGC-803 cells assessed as reduction in cell viability incubated for 72 hrs by MTS assay; assay type: functional, cell-based; settings: MGC-803, 72 h
[20] = Toxicity in BALB/c nude mouse assessed as animal death 25 mg/kg, ip after 7 days; assay type: organism-based; settings: in vivo, 168 h, time 7 day
Bacteria = test: Induction of bacteria His-tagged P62 to GST-tagged RNF168 protein-protein interaction by co-immunoprecipitation assay
HCT-116 [21] = test: Cytotoxicity against human HCT-116 cells assessed as reduction in cell viability incubated for 72 hrs by MTS assay; assay type: functional, cell-based; settings: HCT-116, 72 h
HCT-116 [22] = test: Induction of cell cycle arrest in human HCT-116 cells assessed as accumulation at G2/M phase at 5 uM after 24 hrs by propidium iodide-staining based flow cytometry (reference value: 23.25 +/- 1.38%); assay type: functional
[23] = Cmax in BALB/c mouse at 20 mg/kg; assay type: ADME, organism-based; set-up: dose 20 mg/kg; settings: in vivo
HCT-116 [24] = test: Antitumor activity against human HCT-116 cells xenografted with BALB/c nude mouse assessed as tumor growth inhibition at 5 to 10 mg/kg, ip administered every 3 days upto 22 days by H and E staining based assay; assay type: functional, organism-based; settings: dose 5-10 mg/kg, time <= 22.0 day
U2OS [25] = test: Inhibition of homologous recombinant repair in human U2OS cells assessed as I-SceI induced double […] break pretreated with I-SceI for 36 hrs followed by compound addition and measured after 12 hrs; assay type: functional, cell-based; settings: dose 0.625-2.5 µM, DDE = dose-dependent effect
HCT-116 [26] = test: Induction of P62 to RNF168 protein-protein interaction in human HCT-116 cells lysates chromatin enriched fraction by immunoblotting assay; assay type: subcellular
[27] = Clearance in BALB/c mouse at 5 mg/kg; assay type: ADME, organism-based; settings: in vivo
[28] = Induction of P62 to RNF168 protein-protein interaction (unknown origin) by MST assay; set-up: species or system Homo sapiens
HCT-116 [29] = test: Antitumor activity against human HCT-116 cells xenografted in ip dosed BALB/c nude mouse assessed as tumor growth inhibition; assay type: functional, organism-based; settings: dose 5.0 mg/kg, DDE = dose-dependent effect

## COc1cc(-n2cc(-c3ccc4nc(N)nc(N)c4c3)nn2)cc(OC)c1OC
[1]
  Activity: Toxic
[2]
  AUC(0-t): 215 ng·h/mL
[3]
  AUC(0-t): 408 ng·h/mL
[4]
  Activity: Non-Toxic
A549
  IC50: 1.18 µM
HCT-116 [5]
  Activity: Active
[6]
  clearance: 276 mL/min/kg
[7]
  Activity: Toxic
HeLa
  Activity: Active
[8]
  half-life at 0.5 µM: 7.17 h
HCT-116 [9]
  Activity: 50.82%
[10]
  inhibition: Active
HCT-116 [11]
  Activity: 29.33%
U2OS [12]
  IC50: 3.64 µM
MCF7
  IC50: 2.79 µM
[13]
  half-life: 31 h
HCT-116 [14]
  Activity: Active
[15]
  Activity: Toxic
[16]
  half-life: 16.2 h
[17]
  MTD: 50 mg/kg
MDA-MB-231
  IC50: 1.17 µM
[18]
  half-life: 22.1 h
HCT-116 [19]
  Activity: 24.42%
MGC-803
  IC50: 1.88 µM
[20]
  Activity: Toxic
Bacteria
  Activity: Active
HCT-116 [21]
  IC50: 0.36 µM
HCT-116 [22]
  Activity: 35.34%
[23]
  Cmax: 52.2 ng/mL
HCT-116 [24]
  Activity: Active
U2OS [25]
  inhibition: Dde
HCT-116 [26]
  Activity: Active
[27]
  clearance: 327 mL/min/kg
[28]
  Kd: 0.89 µM
HCT-116 [29]
  Activity: Dde
